The results in this text go back to US5234934A, “Aminopropanol derivatives, process for their preparation and pharmaceutical compositions comprising the same” (priority 1989, dated 1993).

Where two headings read alike, the source gives them in different places.

One data set concerns gastric acid secretion. In words: gastric acid secretion test (Shay). The class given is in vivo, rat. The following applies: Rattus norvegicus, read-out: Inhibition of free acid, %. The method, then: The test was carried out according to Shay's operational method. […] On the day of the test the pylorus of the animals was bound under ether narcosis. The test compounds were administered orally 3 hours before the operation. The animals of the control group were administered with the carrier only. 4 hours after the operation the stomach was removed, the content thereof was centrifuged and the amount of free acid was determined by titration with 0.1N sodium hydroxide.

Data set [1] can be described thus: acute toxicity test in mice (Litchfield and Wilcoxon). The following applies: mouse, in vivo, po., 14 days observation. The format is in vivo, mouse. The method, then: The test for acute toxicity was carried out by using 10 white mice (CFLP strain) (both male and female), weighing 18 to 22 g in each dose group. The compounds of the invention were administered orally in a dose of 20 ml/kg.
The animals were kept in a plastic box on wood chips in a room of room temperature. They could consume tap water and standard mouse feed ad libitum. The toxicity data were determined by the method of Litchfield and Wilcoxon (Litchfield, J. T., Wilcoxon, F. W.: J. Pharmacol. Exp. Ther. 96, 99/1949/).

The next data set has as its system hexobarbital narcosis. Nature of the data set: narcosis potentiating effect (hexobarbital sleeping time). The following applies: for ED50: Mus musculus, po, read-out: ED50 (narcosis potentiation); for TI (therapeutic index): narcosis potentiation, mice, po.
For data set [2], the system named is peristalty of stomach and intestines. Nature of the data set: effect exerted on the peristalty of stomach and intestines (Stickney et al., carbon suspension). The format is in vivo, mouse. Conditions: po., mice; for ED50: Mus musculus, read-out: ED50 (antiperistaltic); for TI (therapeutic index): antiperistaltic. The method, then: The antiperistaltic effect of the compounds was examined by the method of Stickney et al. on white mice of both sexes, weighing 20 to 25 g. The compounds to be tested were administered per os 60 minutes before the addition of carbon suspension to groups containing 10 mice each. The animals of the control groups were treated at the same time and in the same manner with the carrier only. The mice were killed 10 minutes after the addition of the carbon suspension, and the whole length of the intestines as well as the length of the intestines filled with carbon suspension were measured.

Procedure for hexobarbital narcosis: The narcosis potentiating effect of the compounds of the invention were examined on white mice, with 6 animals in each group. The mice were administered orally with the compounds of the invention, then both the control and the test groups were intravenously added 40 mg/kg of hexobarbital in order to make the mice sleep (Kaergard et al.).

As to `COc1ccc(/C=C2\CCCC\C2=N/OCC(O)CNCCCN(C)C)cc1` (racemic) [Example 41, R,S-2-(E)-(4-Methoxyphenyl-methylene)-1-(E)-[3-(3-dimethylamino-1-propylamino)-2-hydroxy-propoxyimino]-cyclohexane], in the data set on gastric acid secretion (dose 200 mg/kg po., rats), the inhibition in vivo at 200 mg/kg was 67%. In addition, the 50% lethal dose (LD50) (in general, the dose at which mortality reaches 50%) at 336 h in data set [1] was greater than 1000 mg/kg.

As for `CN1CCN(CC(O)CO/N=C2\CCCC\C2=C/c2ccccc2)CC1` (racemic) [Example 4, R,S-2-(E)-Phenylmethylene-1-(E)-[3-(4-methyl-1-piperazinyl)-2'-hydroxy-propoxyimino]-cyclohexane], the inhibition in vivo at 200 mg/kg with gastric acid secretion (dose 200 mg/kg po., rats) came out at 77%. The molecule further had a median lethal dose (LD50) at 336 h in data set [1] of 1800 mg/kg.

In the case of `C#CC(C)(C)NCC(O)CO/N=C1\CCCC\C1=C/c1ccc(Cl)cc1` (racemic) [Example 32, R,S-2-(E)-(4-Chlorophenyl-methylene)-1-(E)-[3-(1,1-dimethylpropin-2-yl-amino)-2-hydroxy-propoxyimino]-cyclohexane], the inhibition in vivo at 400 mg/kg with gastric acid secretion (dose 400 mg/kg po., rats) turned out to be 62%. Moreover, in the data set on hexobarbital narcosis, the median effective dose (ED50) (usually the midpoint of the dose-response relation) was 50 mg/kg and the “TI (therapeutic index)” value is given as greater than 40. Also, the LD50 at 336 h in data set [1] is greater than 2000 mg/kg.

For the molecule `COc1ccccc1/C=C1\CCCC\C1=N/OCC(O)CN1CCN(c2ccccc2OC)CC1` (racemic) [Example 38, R,S-2-(E)-(2-Methoxyphenyl-methylene)-1-(E)-{[4-(2-methoxyphenyl)-1-piperazinyl]-2-hydroxy-propoxyimino}-cyclohexane], in the data set with hexobarbital narcosis, the ED50 was 61 mg/kg and the “TI (therapeutic index)” value is 16. Besides, in data set [2], the ED50 was 23 mg/kg and the “TI (therapeutic index)” value turned out to be 44. The median lethal dose (LD50) at 336 h in data set [1] was greater than 1000 mg/kg.

As to `CN/C(=N/CCSCc1nc[nH]c1C)NC#N` [Cimetidine, reference compound], in the data set with gastric acid secretion (po), the inhibition in vivo at 100 mg/kg amounted to 66% and the inhibition in vivo at 200 mg/kg stood at 91%.

`COc1cc(C(=S)N2CCOCC2)cc(OC)c1OC` [Trithiozine, reference compound]: in the data set on gastric acid secretion (po), the inhibition in vivo at 100 mg/kg was found to be 30% and the inhibition in vivo at 400 mg/kg came to 63%.

For the molecule `CCCCNCC(O)CO/N=C1\CCCC\C1=C/c1ccc(Cl)c(Cl)c1` (racemic) [Example 33, R,S-2-(E)-(3,4-Dichlorophenyl-methyl)-1-(E)-(3-butylamino-2-hydroxy-propoxyimino)-cyclohexane], the inhibition in vivo at 200 mg/kg in the data set on gastric acid secretion (dose 200 mg/kg po., rats) worked out at 100%. For the same molecule, in data set [1], the median lethal dose (LD50) at 336 h was greater than 1000 mg/kg.

For `CN1CCN(CC(O)CO/N=C2\CCCCCC\C2=C/c2ccccc2)CC1` (racemic) [Example 20, R,S-2-(E)-Phenylmethylene-1-(E)-[3-(4-methyl-1-piperazinyl)-2-hydroxy-propoxyimino]-cyclooctane], in the data set with hexobarbital narcosis, the ED50 is 21.5 mg/kg and the “TI (therapeutic index)” value is on record as greater than 46.5. Moreover, in data set [2], the median effective dose (ED50) was roughly 100 mg/kg and the “TI (therapeutic index)” value is on record as “about 10”. Besides, the LD50 at 336 h in data set [1] was greater than 1000 mg/kg.

On to `CN(CC(O)CO/N=C1\CCCC\C1=C/c1ccc(Cl)cc1)C1CCCCC1` (racemic) [Example 45, R,S-2-(E)-(4-Chlorophenyl-methylene)-1-(E)-[3'-(N-methyl-N-cyclohexylamino)-2-hydroxy-propoxyimino]-cyclohexane], for which the inhibition in vivo at 200 mg/kg with gastric acid secretion (dose 200 mg/kg po., rats) amounted to 100%. Moreover, in data set [1], the LD50 at 336 h was greater than 1000 mg/kg.

Consider `OC(CO/N=C1\CCCCC\C1=C/c1ccccc1)CN1CCOCC1` (racemic) [Example 15, R,S-2-(E)-Phenylmethylene-1-(E)-(3-morpholino-2-hydroxypropoxyimino)-cycloheptane], for which, in data set [2], the ED50 is 140 mg/kg and the “TI (therapeutic index)” value was 7. The molecule also had an LD50 at 336 h in data set [1] greater than 1000 mg/kg.

On to `OCCN1CCN(CC(O)CO/N=C2\CCCC\C2=C/c2ccccc2)CC1` (racemic) [Example 13], for which, in the data set on gastric acid secretion (dose 200 mg/kg po., rats), the inhibition in vivo at 200 mg/kg turned out to be 74%. In data set [1], this molecule had an LD50 at 336 h greater than 1000 mg/kg.
